Measured values reported in PubChem BioAssay AID1963853 (Molecular Pharmacology Branch, DTP, NCI, 2024).

System: 266295-075-R-J1-PDC spheroid viability
Assay: Anticancer human tumor 266295-075-R-J1-PDC patient-derived head and neck squamous carcinoma cell line growth inhibition [POLQ]
Settings: spheroids with HUVEC and MSC; for IC50: curve of first compound; for viability, T/C: stronger effect = lower value
How it was run: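 Growth inhibition in 3D: complex spheroids (tumor PDC, HUVEC, MSC) treated with POLQ inhibitor combinations; where Cmax unknown, highest tested concentration 10 microM, except SN-38 at 1 microM.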

[1] = second compound 0.0316 µM, first compound 0.0316 µM
[2] = second compound 0.0316 µM, first compound 0.1 µM
[3] = second compound 0.0316 µM, first compound 0.316 µM
[4] = second compound 0.0316 µM, first compound 1 µM
[5] = second compound 0.0316 µM, first compound 3.16 µM
[6] = second compound 0.0316 µM, first compound 10 µM
[7] = second compound 0.1 µM, first compound 0.0316 µM
[8] = second compound 0.1 µM, first compound 0.1 µM
[9] = second compound 0.1 µM, first compound 0.316 µM
[10] = second compound 0.1 µM, first compound 1 µM
[11] = second compound 0.1 µM, first compound 3.16 µM
[12] = second compound 0.1 µM, first compound 10 µM
[13] = second compound 0.316 µM, first compound 0.0316 µM
[14] = second compound 0.316 µM, first compound 0.1 µM
[15] = second compound 0.316 µM, first compound 0.316 µM
[16] = second compound 0.316 µM, first compound 1 µM
[17] = second compound 0.316 µM, first compound 3.16 µM
[18] = second compound 0.316 µM, first compound 10 µM
[19] = second compound 1 µM, first compound 0.0316 µM
[20] = second compound 1 µM, first compound 0.1 µM
[21] = second compound 1 µM, first compound 0.316 µM
[22] = second compound 1 µM, first compound 1 µM
[23] = second compound 1 µM, first compound 3.16 µM
[24] = second compound 1 µM, first compound 10 µM
[25] = second compound 3.16 µM, first compound 0.0316 µM
[26] = second compound 3.16 µM, first compound 0.1 µM
[27] = second compound 3.16 µM, first compound 0.316 µM
[28] = second compound 3.16 µM, first compound 1 µM
[29] = second compound 3.16 µM, first compound 3.16 µM
[30] = second compound 3.16 µM, first compound 10 µM
[31] = second compound 10 µM, first compound 0.0316 µM
[32] = second compound 10 µM, first compound 0.1 µM
[33] = second compound 10 µM, first compound 0.316 µM
[34] = second compound 10 µM, first compound 1 µM
[35] = second compound 10 µM, first compound 3.16 µM
[36] = second compound 10 µM, first compound 10 µM
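Note: spheroids exposed to compounds for seven days before readout.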

CC(C)n1c(=O)n(C)c2cnc3cc(F)c(-c4ccc(OCCCN5CCCCC5)nc4)cc3c21 + Nc1ccc(C#CCN(C(=O)Cc2ncc(C(F)(F)F)cc2C(F)(F)F)c2ccc(F)cc2)nn1
IC50 (second compound 0.0316 µM): > 10 µM
IC50 (second compound 0.1 µM): > 10 µM
IC50 (second compound 0.316 µM): > 10 µM
IC50 (second compound 1 µM): > 10 µM
IC50 (second compound 3.16 µM): > 10 µM
IC50 (second compound 10 µM): > 10 µM
viability, T/C [1]: 105%
viability, T/C [2]: 99.3%
viability, T/C [3]: 104%
viability, T/C [4]: 106%
viability, T/C [5]: 82.8%
viability, T/C [6]: 76.3%
viability, T/C [7]: 93.8%
viability, T/C [8]: 103%
viability, T/C [9]: 88%
viability, T/C [10]: 80.6%
viability, T/C [11]: 96%
viability, T/C [12]: 64.5%
viability, T/C [13]: 110%
viability, T/C [14]: 105%
viability, T/C [15]: 90.2%
viability, T/C [16]: 91.3%
viability, T/C [17]: 89.9%
viability, T/C [18]: 66.7%
viability, T/C [19]: 93.5%
viability, T/C [20]: 114%
viability, T/C [21]: 99.4%
viability, T/C [22]: 90%
viability, T/C [23]: 82.2%
viability, T/C [24]: 65.3%
viability, T/C [25]: 121%
viability, T/C [26]: 118%
viability, T/C [27]: 103%
viability, T/C [28]: 96.3%
viability, T/C [29]: 92.4%
viability, T/C [30]: 87.9%
viability, T/C [31]: 96.5%
viability, T/C [32]: 87.9%
viability, T/C [33]: 118%
viability, T/C [34]: 93.3%
viability, T/C [35]: 66.4%
viability, T/C [36]: 71.8%

CC1COCCN1c1cc(C2(S(C)(=N)=O)CC2)nc(-c2ccnc3[nH]ccc23)n1 (stereo unspecified) + Nc1ccc(C#CCN(C(=O)Cc2ncc(C(F)(F)F)cc2C(F)(F)F)c2ccc(F)cc2)nn1
IC50 (second compound 0.0316 µM): > 10 µM
IC50 (second compound 0.1 µM): > 10 µM
IC50 (second compound 0.316 µM): 8.58 µM
IC50 (second compound 1 µM): 9.41 µM
IC50 (second compound 3.16 µM): > 10 µM
IC50 (second compound 10 µM): > 10 µM
viability, T/C [1]: 110%
viability, T/C [2]: 93.3%
viability, T/C [3]: 83.4%
viability, T/C [4]: 75.5%
viability, T/C [5]: 67.5%
viability, T/C [6]: 63%
viability, T/C [7]: 102%
viability, T/C [8]: 116%
viability, T/C [9]: 92%
viability, T/C [10]: 93.9%
viability, T/C [11]: 80.2%
viability, T/C [12]: 57.2%
viability, T/C [13]: 81.9%
viability, T/C [14]: 102%
viability, T/C [15]: 92.5%
viability, T/C [16]: 79%
viability, T/C [17]: 78.4%
viability, T/C [18]: 45.6%
viability, T/C [19]: 97.8%
viability, T/C [20]: 109%
viability, T/C [21]: 96.6%
viability, T/C [22]: 87.6%
viability, T/C [23]: 67.6%
viability, T/C [24]: 48.9%
viability, T/C [25]: 89.9%
viability, T/C [26]: 141%
viability, T/C [27]: 100%
viability, T/C [28]: 92.8%
viability, T/C [29]: 69.4%
viability, T/C [30]: 57.3%
viability, T/C [31]: 95.4%
viability, T/C [32]: 99%
viability, T/C [33]: 95.5%
viability, T/C [34]: 92.7%
viability, T/C [35]: 70.6%
viability, T/C [36]: 62.9%

Cn1ncnc1[C@H]1c2n[nH]c(=O)c3cc(F)cc(c23)N[C@@H]1c1ccc(F)cc1 + Nc1ccc(C#CCN(C(=O)Cc2ncc(C(F)(F)F)cc2C(F)(F)F)c2ccc(F)cc2)nn1
IC50 (second compound 0.0316 µM): > 0.1 µM
IC50 (second compound 0.1 µM): > 0.1 µM
IC50 (second compound 0.316 µM): > 0.1 µM
IC50 (second compound 1 µM): > 0.1 µM
IC50 (second compound 3.16 µM): > 0.1 µM
IC50 (second compound 10 µM): > 0.1 µM
viability, T/C (second compound 0.0316 µM, first compound 0.000316 µM): 86.1%
viability, T/C (second compound 0.0316 µM, first compound 0.001 µM): 95.8%
viability, T/C (second compound 0.0316 µM, first compound 0.00316 µM): 89.1%
viability, T/C (second compound 0.0316 µM, first compound 0.01 µM): 92.1%
viability, T/C [1]: 79.7%
viability, T/C [2]: 85.3%
viability, T/C (second compound 0.1 µM, first compound 0.000316 µM): 97.9%
viability, T/C (second compound 0.1 µM, first compound 0.001 µM): 107%
viability, T/C (second compound 0.1 µM, first compound 0.00316 µM): 91.8%
viability, T/C (second compound 0.1 µM, first compound 0.01 µM): 101%
viability, T/C [7]: 88.5%
viability, T/C [8]: 101%
viability, T/C (second compound 0.316 µM, first compound 0.000316 µM): 110%
viability, T/C (second compound 0.316 µM, first compound 0.001 µM): 114%
viability, T/C (second compound 0.316 µM, first compound 0.00316 µM): 92.1%
viability, T/C (second compound 0.316 µM, first compound 0.01 µM): 82.7%
viability, T/C [13]: 93%
viability, T/C [14]: 99.4%
viability, T/C (second compound 1 µM, first compound 0.000316 µM): 105%
viability, T/C (second compound 1 µM, first compound 0.001 µM): 96.3%
viability, T/C (second compound 1 µM, first compound 0.00316 µM): 78.6%
viability, T/C (second compound 1 µM, first compound 0.01 µM): 99%
viability, T/C [19]: 105%
viability, T/C [20]: 69.7%
viability, T/C (second compound 3.16 µM, first compound 0.000316 µM): 103%
viability, T/C (second compound 3.16 µM, first compound 0.001 µM): 101%
viability, T/C (second compound 3.16 µM, first compound 0.00316 µM): 98.5%
viability, T/C (second compound 3.16 µM, first compound 0.01 µM): 83.8%
viability, T/C [25]: 87.9%
viability, T/C [26]: 87.6%
viability, T/C (second compound 10 µM, first compound 0.000316 µM): 91.6%
viability, T/C (second compound 10 µM, first compound 0.001 µM): 103%
viability, T/C (second compound 10 µM, first compound 0.00316 µM): 110%
viability, T/C (second compound 10 µM, first compound 0.01 µM): 104%
viability, T/C [31]: 88.5%
viability, T/C [32]: 122%
